Results: US10301317B2, “Inhibitors of ERK and methods of use” (Kura Oncology, Inc., priority 2013, dated 2019)

Assays:
[1] = system: phospho-p90 RSK (RSK1 Thr359/Ser363) in A375 (Braf V600E) cells; assay: Phospho-p90 RSK ELISA using A375 (Braf V600E) cells; type: cell-based; conditions: Homo sapiens, A-375, 2 hours compound treatment, read-out: Cellular Phospho-p90RSK IC50
[2] = system: A375 cells; assay: Tumor cell line proliferation assay (CellTiter Glo), A375; type: cell-based; conditions: Homo sapiens, A-375, 96 h, read-out: A375 (V599E) Cell Proliferation IC50
[3] = system: H358 (Kras, G12C) cells; assay: Tumor cell line proliferation assay (CellTiter Glo), H358; type: cell-based; conditions: Homo sapiens, NCI-H358, 96 hours
[4] = target: ERK2 enzyme (Homo sapiens (Human), UniProt P28482); assay: Z'-LYTE kinase assay, inhibition of ERK activity; type: biochemical; conditions: In vitro Erk2, Z'-LYTE kinase assay, 100 μM ATP
Method: The inhibition of ERK activity by the compounds disclosed herein was determined using the Z′-LYTE kinase assay kit (Life Technologies) with a Ser/Thr 3 peptide substrate (Life Technologies) according to manufacturers' instructions. […] The IC50 values for the compounds were determined with 3-fold serial dilutions in duplicate. […] The final DMSO concentration in the assay was 1%. Final reaction volume was 20 μL/well in 384-well plates. Kinase reactions were conducted or 1 hour followed by the assay development reaction (1 hour) in a 20 ul/well in a 384 well plate format.

[5] = system: WM-266-4 cells; assay: Tumor cell line proliferation assay (CellTiter Glo), WM-266-4; type: cell-based; conditions: Homo sapiens, 96 hours, read-out: WM-266-4 (V599D) Cell Proliferation IC50

Sequence of ERK2 enzyme (P28482 whole entry): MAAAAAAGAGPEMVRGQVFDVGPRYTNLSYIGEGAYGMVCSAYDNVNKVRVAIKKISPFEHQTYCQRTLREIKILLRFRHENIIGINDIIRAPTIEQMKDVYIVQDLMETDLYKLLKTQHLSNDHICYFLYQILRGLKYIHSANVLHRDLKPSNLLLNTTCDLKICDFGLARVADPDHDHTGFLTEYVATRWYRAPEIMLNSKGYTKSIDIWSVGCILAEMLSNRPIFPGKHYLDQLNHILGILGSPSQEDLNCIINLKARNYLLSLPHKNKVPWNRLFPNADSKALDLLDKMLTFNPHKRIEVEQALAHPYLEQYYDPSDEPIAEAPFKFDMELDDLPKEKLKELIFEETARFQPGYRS

SMILES	IC50 [1]	IC50 [2]	IC50 [3]	IC50 [4]	IC50 [5]
Cc1cc(-c2n[nH]c3cc4c(cc23)CN([C@@H]2CCCN(Cc3ccccc3)C2)C(=O)N4)ccn1 [Example 63]	≤ 250 nM	≤ 250 nM	≤ 250 nM	–	–
COc1ccc(-c2n[nH]c3cc4[nH]c(=O)c(C5CCCN(Cc6ccccc6)C5)cc4cc23)cn1 (stereo not shown) [Example 367]	250 to 1000 nM	–	–	< 50 nM	–
Cc1cc(-c2n[nH]c3cc4c(cc23)CN([C@H](C)c2ccc(C#N)cc2)C(=O)N4)ccn1 [Example 23]	≤ 250 nM	250 to 1000 nM	–	–	> 1000 nM
Cc1cc(-c2n[nH]c3cc4c(cc23)CN([C@@H]2CCCN(Cc3ccc(F)cc3F)C2)C(=O)N4)ccn1 [Example 196]	≤ 250 nM	≤ 250 nM	≤ 250 nM	–	–
Cc1cc(-c2n[nH]c3cc4c(cc23)CN(Cc2cc(F)cc(F)c2)C(=O)N4)ccn1 [Example 7]	≤ 250 nM	250 to 1000 nM	–	–	≤ 250 nM
COc1ncc(-c2n[nH]c3cc4c(cc23)CN([C@@H]2CCCN(Cc3ccccc3F)C2)C(=O)N4)cn1 [Example 101]	≤ 250 nM	≤ 250 nM	≤ 250 nM	–	–
Cc1cc(-c2n[nH]c3cc4c(cc23)CN([C@H](C)c2cccc(Cl)c2)C(=O)N4)ccn1 [Example 35]	≤ 250 nM	250 to 1000 nM	≤ 250 nM	–	–
Cc1cc(-c2n[nH]c3cc4[nH]c(=O)n(CCc5ccccc5)c4cc23)ccn1 [Example 20]	> 1000 nM	> 1000 nM	–	–	> 1000 nM
Cc1cc(-c2n[nH]c3cc4c(cc23)CN([C@@H]2CCCNC2)C(=O)N4)ccn1 [Example 32]	> 1000 nM	> 1000 nM	> 1000 nM	–	–
COc1ccc(-c2n[nH]c3cc4c(cc23)CN(Cc2ccc(F)c(Cl)c2)C(=O)N4)cn1 [Example 36]	250 to 1000 nM	250 to 1000 nM	250 to 1000 nM	–	–
Cc1cc(-c2n[nH]c3cc4[nH]c(=O)c(C(O)c5ccccc5)cc4cc23)ccn1 (stereo not shown) [Example 221]	250 to 1000 nM	250 to 1000 nM	250 to 1000 nM	–	–
Cc1cc(-c2n[nH]c3cc4c(cc23)CN([C@H](C)c2ccccc2)C(=O)N4)ccn1 [Example 2, (R)-3-(2-methylpyridin-4-yl)-6-(1-phenylethyl)-5,6-dihydro-1H-pyrazolo[4,3-g]quinazolin-7(8H)-one]	≤ 250 nM	250 to 1000 nM	–	–	250 to 1000 nM
Cc1cc(-c2n[nH]c3cc4c(cc23)CN([C@@H]2CCCN(Cc3cccnc3C(F)(F)F)C2)C(=O)N4)ccn1 [Example 161]	≤ 250 nM	250 to 1000 nM	250 to 1000 nM	–	–
Cc1cc(-c2n[nH]c3cc4c(cc23)CN(Cc2cccc(Cl)c2)C(=O)N4)cc(C)n1 [Example 77]	≤ 250 nM	≤ 250 nM	250 to 1000 nM	–	–
Cc1cc(-c2n[nH]c3cc4c(cc23)CN([C@@H]2CCN(Cc3c(F)cccc3F)C2)C(=O)N4)ccn1 [Example 147]	≤ 250 nM	250 to 1000 nM	≤ 250 nM	–	–
Cc1cc(-c2n[nH]c3cc4[nH]c(=O)n(Cc5cccc(Cl)c5)c(=O)c4cc23)ccn1 [Example 24]	–	> 1000 nM	–	–	> 1000 nM
Cc1cc(-c2n[nH]c3cc4c(cc23)CN(Cc2ccc(F)cc2F)C(=O)N4)ccn1 [Example 11]	≤ 250 nM	250 to 1000 nM	–	–	≤ 250 nM
COc1ncc(-c2n[nH]c3cc4c(cc23)CN([C@@H]2CCCN(Cc3c(F)cccc3OC)C2)C(=O)N4)cn1 [Example 103]	≤ 250 nM	≤ 250 nM	≤ 250 nM	–	–
COc1ncc(-c2n[nH]c3cc4c(cc23)CN(Cc2ccc(F)cc2F)C(=O)N4)cn1 [Example 99]	≤ 250 nM	250 to 1000 nM	250 to 1000 nM	–	–
Cc1cc(-c2n[nH]c3cc4c(cc23)CN([C@@H]2CCCN(Cc3cc(F)cc(F)c3)C2)C(=O)N4)ccn1 [Example 163]	≤ 250 nM	250 to 1000 nM	250 to 1000 nM	–	–
Cc1cc(-c2n[nH]c3cc4c(cc23)CN([C@@H]2CCN(Cc3ccccc3)C2)C(=O)N4)ccn1 [Example 146]	≤ 250 nM	≤ 250 nM	≤ 250 nM	–	–
Cn1cc(-c2n[nH]c3cc4c(cc23)CN(Cc2ccc(F)c(Cl)c2)C(=O)N4)cn1 [Example 31]	≤ 250 nM	250 to 1000 nM	250 to 1000 nM	–	–
Cc1cc(-c2n[nH]c3cc4c(cc23)CN([C@@H]2CCCN(C(C)c3ccc(F)cc3)C2)C(=O)N4)ccn1 (stereo partly shown) [Example 179]	≤ 250 nM	250 to 1000 nM	250 to 1000 nM	–	–
Cc1cc(-c2n[nH]c3cc4c(cc23)CN([C@@H]2CCCN(Cc3ccc(F)c(F)c3)C2)C(=O)N4)ccn1 [Example 190]	≤ 250 nM	≤ 250 nM	250 to 1000 nM	–	–
